Blank lines part the entries; values can stand above or below the molecule they belong to.
Tests used:
[1] = biological target: T1, Muscarinic acetylcholine receptor M1 (Homo sapiens) (UniProt P11229); assay: Displacement of [3H]NMS from recombinant human mAChR1 expressed in Flp-In-CHO cells after 1 hr by microbeta scintillation counting analysis; assay type: cell-based
T1 sequence (whole entry): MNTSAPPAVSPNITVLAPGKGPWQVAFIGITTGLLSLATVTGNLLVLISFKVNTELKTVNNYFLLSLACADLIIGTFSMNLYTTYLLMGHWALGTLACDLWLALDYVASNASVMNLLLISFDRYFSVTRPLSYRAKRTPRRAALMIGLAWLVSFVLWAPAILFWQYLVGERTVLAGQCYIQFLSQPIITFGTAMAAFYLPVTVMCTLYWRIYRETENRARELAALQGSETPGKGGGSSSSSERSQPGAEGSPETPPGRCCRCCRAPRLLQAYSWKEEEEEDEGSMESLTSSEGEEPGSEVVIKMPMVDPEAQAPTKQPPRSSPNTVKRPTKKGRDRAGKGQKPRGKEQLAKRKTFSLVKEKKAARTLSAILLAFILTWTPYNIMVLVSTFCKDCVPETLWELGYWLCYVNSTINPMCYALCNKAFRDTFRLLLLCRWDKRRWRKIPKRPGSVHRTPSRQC

[2] = biological target: D(2) dopamine receptor (Homo sapiens) (UniProt P14416)
Description: Agonist activity at Rluc8-tagged D2 long receptor (unknown origin) expressed in Flp-In-CHO cells co-expressing YFP-tagged beta-arrestin2 assessed as change in transduction coefficient by measuring beta-arrestin2 recruitment measured after 5 mins by BRET assay

[3] = biological target: D(2) dopamine receptor (Homo sapiens) (UniProt P14416); remark: listed apart in the source
Description: Agonist activity at D2 long receptor (unknown origin) expressed in Flp-In-CHO cells co-expressing Rluc8-tagged GalphaoB assessed as change in transduction coefficient by measuring GalphaoB activation in presence of coelenterazine by BRET assay

[4] = biological target: D(2) dopamine receptor (Homo sapiens) (UniProt P14416); remark: listed apart in the source
Description: Displacement of [3H]spiperone from D2 long receptor (unknown origin) expressed in Flp-In-CHO cell membranes assessed as transduction coefficient by measuring dissociation half life after 5 mins by liquid scintillation counter method

[5] = biological target: D(2) dopamine receptor (Homo sapiens) (UniProt P14416); remark: listed apart in the source
Description: Agonist activity at D2 long receptor (unknown origin) expressed in Flp-In-CHO cells co-expressing Rluc8-tagged Galphai1 assessed as change in transduction coefficient by measuring Galphai1 activation after 5 mins in presence of coelenterazine by BRET assay

[6] = biological target: D(2) dopamine receptor (Homo sapiens) (UniProt P14416); remark: listed apart in the source
Description: Agonist activity at D2 long receptor (unknown origin) expressed in Flp-In-CHO cells assessed as change in transduction coefficient by measuring inhibition of forskolin-induced cAMP production measured after 5 mins in presence of coelenterazine by BRET assay

[7] = biological target: D(2) dopamine receptor (Homo sapiens) (UniProt P14416); remark: listed apart in the source
Description: Agonist activity at D2 long receptor (unknown origin) expressed in Flp-In-CHO cells assessed as change in transduction coefficient by measuring induction of ERK1/2 phosphorylation after 5 mins by Alphascreen assay

[8] = biological target: D(2) dopamine receptor (Homo sapiens) (UniProt P14416); remark: listed apart in the source
Description: Agonist activity at D2 long receptor (unknown origin) expressed in Flp-In-CHO cells assessed as change in transduction coefficient by measuring cellular impedance measured immediately at 15 secs interval for 90 mins by xCELLigence assay

[9] = biological target: T2, Glycine receptor subunit alpha-1 (Homo sapiens, UniProt P23415); assay: Positive allosteric modulatory activity at recombinant human glycine alpha1 receptor expressed in HEK293 cells assessed as potentiation of glycine-induced response at -50 mV holding potential in presence of fructose by whole cell patch clamp method; assay type: cell-based
T2 sequence (P23415 whole entry): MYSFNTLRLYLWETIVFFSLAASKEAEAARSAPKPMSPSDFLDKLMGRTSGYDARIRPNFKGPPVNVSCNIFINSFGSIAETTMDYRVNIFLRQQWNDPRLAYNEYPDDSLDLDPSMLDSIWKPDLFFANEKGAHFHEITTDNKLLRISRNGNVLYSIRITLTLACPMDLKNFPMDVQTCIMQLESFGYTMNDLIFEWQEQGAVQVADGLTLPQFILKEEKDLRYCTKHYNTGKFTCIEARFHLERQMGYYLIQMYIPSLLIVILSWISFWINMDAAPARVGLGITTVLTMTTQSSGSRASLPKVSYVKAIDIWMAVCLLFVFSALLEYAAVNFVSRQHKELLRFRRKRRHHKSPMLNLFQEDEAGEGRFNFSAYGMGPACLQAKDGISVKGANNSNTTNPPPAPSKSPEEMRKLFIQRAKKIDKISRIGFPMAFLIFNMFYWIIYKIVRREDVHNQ

[10] = biological target: T1, Muscarinic acetylcholine receptor M1 (Homo sapiens); assay: Displacement of [3H]NMS from recombinant human mAChR1 expressed in CHO cells; assay type: cell-based
[11] = biological target: T3, C-X-C chemokine receptor type 3 (Homo sapiens) (UniProt P49682); assay: Displacement of [3H]RAMX3 from CXCR3 (unknown origin) expressed in HEK cells after 1 hrs by microbeta scintillation counter; assay type: cell-based
T3 sequence (whole entry): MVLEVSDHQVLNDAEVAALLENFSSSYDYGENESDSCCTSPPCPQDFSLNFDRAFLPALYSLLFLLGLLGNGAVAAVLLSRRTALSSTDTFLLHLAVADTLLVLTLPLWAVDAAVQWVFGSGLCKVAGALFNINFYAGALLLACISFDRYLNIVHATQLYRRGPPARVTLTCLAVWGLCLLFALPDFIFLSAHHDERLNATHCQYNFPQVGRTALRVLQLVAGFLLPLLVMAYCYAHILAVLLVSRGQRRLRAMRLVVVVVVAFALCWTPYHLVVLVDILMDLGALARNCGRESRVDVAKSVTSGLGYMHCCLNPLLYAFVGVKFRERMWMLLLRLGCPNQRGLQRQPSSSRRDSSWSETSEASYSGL

[12] = biological target: T4, Tyrosine-protein kinase BTK (Homo sapiens, UniProt Q06187); assay: Ratio of Kinact to ki for recombinant full length BTK (unknown origin)
[13] = biological target: T4, Tyrosine-protein kinase BTK; assay: Binding affinity to recombinant full length BTK (unknown origin) assessed as residence time by fluorescent tracer based TR-FRET assay
[14] = biological target: T5, Muscarinic acetylcholine receptor M2 (Homo sapiens, UniProt P08172); assay: Displacement of [3H]NMS from wild-type human mAChR2 expressed in Flp-In-CHO cell membranes in presence of mAChR2 agonist acetylcholine after 90 mins by scintillation counting analysis
T5 sequence (P08172 whole entry): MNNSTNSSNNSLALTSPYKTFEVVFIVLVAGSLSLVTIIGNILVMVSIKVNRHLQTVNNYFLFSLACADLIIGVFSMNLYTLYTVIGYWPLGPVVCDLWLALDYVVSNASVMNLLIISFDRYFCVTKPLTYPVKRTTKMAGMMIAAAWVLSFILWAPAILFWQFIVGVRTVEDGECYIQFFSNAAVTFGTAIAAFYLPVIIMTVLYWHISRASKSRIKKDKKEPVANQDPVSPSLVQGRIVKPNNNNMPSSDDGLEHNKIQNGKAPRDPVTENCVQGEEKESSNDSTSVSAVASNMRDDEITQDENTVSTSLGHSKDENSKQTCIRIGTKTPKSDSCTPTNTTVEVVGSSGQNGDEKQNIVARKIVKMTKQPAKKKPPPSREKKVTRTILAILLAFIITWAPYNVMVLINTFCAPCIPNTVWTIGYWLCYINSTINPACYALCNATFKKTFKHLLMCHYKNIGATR

[15] = biological target: T5, Muscarinic acetylcholine receptor M2; assay: Displacement of [3H]NMS from wild-type human mAChR2 expressed in Flp-in-CHO cell membranes in presence of mAChR2 agonist xanomeline after 90 mins by scintillation counting analysis
[16] = biological target: Metabotropic glutamate receptor 5 (Homo sapiens) (UniProt P41594); assay: Negative allosteric modulation of mGlu5 receptor (unknown origin) expressed in HEK293A cells assessed as inhibition of glutamate induced-calcium mobilization by Fluo-4 AM dye based fluorescence assay; assay type: functional, cell-based
Metabotropic glutamate receptor 5 (Homo sapiens), sequence (P41594 21-1212 limits assumed): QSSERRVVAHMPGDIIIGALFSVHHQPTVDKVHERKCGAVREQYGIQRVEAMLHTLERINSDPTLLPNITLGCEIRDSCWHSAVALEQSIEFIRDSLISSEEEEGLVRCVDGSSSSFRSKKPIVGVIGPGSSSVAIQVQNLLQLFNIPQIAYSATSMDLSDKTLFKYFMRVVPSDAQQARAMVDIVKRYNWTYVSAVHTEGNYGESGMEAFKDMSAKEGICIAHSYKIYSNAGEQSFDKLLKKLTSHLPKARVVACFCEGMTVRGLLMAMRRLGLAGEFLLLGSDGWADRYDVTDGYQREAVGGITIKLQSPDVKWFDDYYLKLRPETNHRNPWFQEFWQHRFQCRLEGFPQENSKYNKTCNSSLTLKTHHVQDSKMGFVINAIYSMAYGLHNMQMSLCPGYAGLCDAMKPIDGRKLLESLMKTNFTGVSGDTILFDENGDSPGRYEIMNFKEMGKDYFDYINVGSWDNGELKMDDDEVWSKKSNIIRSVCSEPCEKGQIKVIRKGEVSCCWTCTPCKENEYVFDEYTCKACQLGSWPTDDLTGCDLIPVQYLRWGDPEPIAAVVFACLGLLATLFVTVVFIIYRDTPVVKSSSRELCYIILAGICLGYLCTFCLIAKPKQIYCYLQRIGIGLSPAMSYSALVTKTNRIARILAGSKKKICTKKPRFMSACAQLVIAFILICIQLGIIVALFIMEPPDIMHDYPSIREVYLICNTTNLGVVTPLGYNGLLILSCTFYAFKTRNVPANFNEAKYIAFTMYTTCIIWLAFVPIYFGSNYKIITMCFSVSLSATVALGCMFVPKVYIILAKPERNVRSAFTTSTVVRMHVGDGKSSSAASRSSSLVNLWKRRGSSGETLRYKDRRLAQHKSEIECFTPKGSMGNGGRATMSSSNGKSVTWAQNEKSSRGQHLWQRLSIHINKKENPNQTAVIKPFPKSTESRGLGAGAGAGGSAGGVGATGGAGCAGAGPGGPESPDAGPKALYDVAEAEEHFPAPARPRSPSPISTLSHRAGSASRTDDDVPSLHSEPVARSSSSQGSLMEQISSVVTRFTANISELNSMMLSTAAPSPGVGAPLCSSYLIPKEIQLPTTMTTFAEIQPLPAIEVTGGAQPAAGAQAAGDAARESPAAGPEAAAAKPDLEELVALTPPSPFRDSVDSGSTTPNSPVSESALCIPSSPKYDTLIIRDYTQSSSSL

D(2) dopamine receptor (Homo sapiens), sequence (P14416 whole entry): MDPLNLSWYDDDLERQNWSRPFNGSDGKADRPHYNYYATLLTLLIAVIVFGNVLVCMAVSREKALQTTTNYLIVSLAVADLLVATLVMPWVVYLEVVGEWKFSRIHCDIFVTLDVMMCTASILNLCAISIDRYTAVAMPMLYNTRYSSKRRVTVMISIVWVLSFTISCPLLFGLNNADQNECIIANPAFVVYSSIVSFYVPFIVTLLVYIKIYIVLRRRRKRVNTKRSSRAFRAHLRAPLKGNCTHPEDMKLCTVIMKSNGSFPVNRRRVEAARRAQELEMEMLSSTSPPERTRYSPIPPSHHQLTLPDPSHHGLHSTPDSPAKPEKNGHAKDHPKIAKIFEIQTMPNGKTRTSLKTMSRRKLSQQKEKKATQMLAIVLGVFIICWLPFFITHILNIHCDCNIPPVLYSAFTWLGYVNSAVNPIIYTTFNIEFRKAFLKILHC
T4 sequence (Q06187 whole entry): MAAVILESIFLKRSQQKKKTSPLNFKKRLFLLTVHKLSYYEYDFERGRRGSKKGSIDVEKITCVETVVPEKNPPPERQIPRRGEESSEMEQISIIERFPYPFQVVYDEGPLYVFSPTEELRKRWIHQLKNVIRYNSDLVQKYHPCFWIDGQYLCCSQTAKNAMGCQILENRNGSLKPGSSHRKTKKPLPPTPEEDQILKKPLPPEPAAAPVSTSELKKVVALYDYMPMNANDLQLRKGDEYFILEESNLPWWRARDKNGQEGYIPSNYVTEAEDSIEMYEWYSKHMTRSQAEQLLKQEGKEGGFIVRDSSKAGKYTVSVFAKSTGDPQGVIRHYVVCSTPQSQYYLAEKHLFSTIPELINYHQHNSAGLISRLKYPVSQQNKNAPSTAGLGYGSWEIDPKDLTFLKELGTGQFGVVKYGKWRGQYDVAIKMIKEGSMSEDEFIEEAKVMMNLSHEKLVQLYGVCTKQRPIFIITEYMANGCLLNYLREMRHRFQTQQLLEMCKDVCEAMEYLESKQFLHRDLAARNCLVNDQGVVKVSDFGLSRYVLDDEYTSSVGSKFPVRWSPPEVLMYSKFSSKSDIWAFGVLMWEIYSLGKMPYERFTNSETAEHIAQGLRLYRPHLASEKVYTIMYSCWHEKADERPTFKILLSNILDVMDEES

- pKb [1]: 5.1
Structure (SMILES): Cc1c(Cc2ccc(-c3cnn(C)c3)nc2)cc2c(=O)n([C@H]3CCCC[C@@H]3O)cnc2c1C

- pKb [11]: 6.1
Structure (SMILES): CCOc1cc(CC(=O)N(Cc2ccc(OC)c(B(O)O)c2)C(C)c2nc3ncccc3c(=O)n2-c2ccc(C)cc2)ccc1F (stereo not given)

- pKb [1]: 4.3
Structure (SMILES): Cn1cc(-c2ccc(Cc3ccc4ncn([C@H]5CCCC[C@@H]5O)c(=O)c4c3)cn2)cn1

- deltalog(Tau/KA) [3]: 0.7
- T1/2 [4]: 1.4 min
- deltalog(Tau/KA) [6]: 0.2
- deltalog(Tau/KA) [7]: -1.1
- deltalog(Tau/KA) [8]: 0.3
Structure (SMILES): CN(C)C(=O)N[C@H]1CC[C@H](CCN2CCN(c3cccc(Cl)c3Cl)CC2)CC1

Further lines, the molecule ahead of its results:

Structure (SMILES): COc1ccc(Cn2cc(C(=O)O)c(=O)c3ccccc32)cc1
- pKb [1]: 4.8

Structure (SMILES): O=c1[nH]c2cccc(N3CCN(Cc4cccc(-c5ccccc5)c4)CC3)c2o1
- deltalog(Tau/KA) [2]: -0.6
- deltalog(Tau/KA) [3]: 0.3
- T1/2 [4]: 86 min
- deltalog(Tau/KA) [5]: 1.4
- deltalog(Tau/KA) [6]: -0.2
- deltalog(Tau/KA) [7]: -1.2
- deltalog(Tau/KA) [8]: -0.3

Structure (SMILES): O=C(CO)[C@@H](O)[C@H](O)[C@H](O)CO [FRUCTOSE]
- EC50 [9]: 12.6 µM

Structure (SMILES): O=C(O)c1cn(Cc2ccc(N=C=S)cc2)c2ccccc2c1=O
- pKb [10]: 5.2

Structure (SMILES): CC(C)(/C=C(\C#N)C(=O)N1CCC[C@@H]1Cn1nc(-c2ccc(Oc3ccccc3)cc2F)c2c(N)ncnc21)NC1COC1
- Ratio [12]: 0.4
- TIME [13]: 167 h

Structure (SMILES): Cn1cc(-c2ccc(Cc3cc4c(=O)n([C@H]5CCCC[C@@H]5O)cnc4c4ccccc34)cn2)cn1
- pKb [1]: 5.8

Structure (SMILES): COc1nc2sc(C(=O)NC3CC3)c(N)c2c(C)c1Cl
- Ki [14]: 3.16 µM
- Ki [15]: 0.158 µM

Structure (SMILES): C#CCOc1ccc(C(=O)c2ccc(OCCOc3cccc(C#Cc4csc(C)n4)c3)cc2)cc1
- pKb [16]: 6.1

Structure (SMILES): Cc1cc2ncn([C@H]3CCCC[C@@H]3O)c(=O)c2cc1Cc1ccc(-c2cnn(C)c2)nc1
- pKb [1]: 5.2
